Data on 2 molecules can be found in patent publication US20040106545A1, “Compounds and methods for modulating cell adhesion” (priority 1996, published 2004).

SMILES strings stand for the structures. Entries after “also recorded” stand apart in the source; their conditions may differ.

Data set [1] has as its system A1N4 human breast epithelial cells. Briefly: Disruption of breast epithelial cell adhesion, E-cadherin staining. Type of data set: cell-based. As to conditions: 500 μg/mL, 48 hours. As for the experimental part:
(§1) A1N4 human breast epithelial cells (kindly provided by Martha Stampfer, Lawrence Berkeley Laboratory, Berkeley, Calif.) were plated on glass coverslips and cultured in F12/DME containing 0.5% FCS and 10 ng/mL EGF for 24 hours. Fresh medium containing the cyclic peptides (final concentration 500 μg/mL media) N—Ac-CHAVC-NH2 (SEQ ID NO:10) or N—Ac-CHGVC-NH2 (SEQ ID NO:11) was then added. Following 24 hours of culture in the presence of the peptides, the medium was removed and fresh medium containing the peptides was added. The cells were fixed 24 hours later with cold methanol and stored in phosphate buffered saline (PBS).
(§2) Coverslips were blocked for 1 hour in 3% ovalbumin/PBS and incubated for a further 1 hour in the presence of 1 μg/mL mouse anti-E-cadherin antibody (Zymed, Gaithersburg, Md.). Primary and secondary antibodies were diluted in PBS containing 6% normal goat serum. Following incubation in the primary antibody, coverslips were washed 3 times for 5 minutes each in PBS and incubated for 1 hour with goat anti-mouse conjugated to fluorescein (Kiekegard and Perry, South San Francisco, Calif.) diluted 1:100. Following a further wash in PBS (3×5 minutes) coverslips were mounted in Vectashield (Vector Labs, Burlingame, Calif.) and viewed with a Zeiss infinity corrected microscope.

The next data set deals with NRK cells. Briefly: Disruption of normal rat kidney (NRK) cell adhesion, E-cadherin immunofluorescence. Type of data set: cell-based. The following applies: 1 mg/mL, 48 hours. As for the experimental part: Within another such assay, the effect of a modulating agent on normal rat kidney (NRK) cells may be evaluated. According to a representative procedure, NRK cells (ATCC #1571-CRL) may be plated at 10-20,000 cells per 35 mm tissue culture flasks containing DMEM with 10% FCS and sub-cultured periodically (Laird et al., J. Cell Biol. 131:1193-1203, 1995). Cells may be harvested and replated in 35 mm tissue culture flasks containing 1 mm coverslips and incubated until 50-65% confluent (24-36 hours). At this time, coverslips may be transferred to a 24-well plate, washed once with fresh DMEM and exposed to modulating agent at a concentration of, for example, 1 mg/mL for 24 hours. Fresh modulating agent may then be added, and the cells left for an additional 24 hours. Cells may be fixed with 100% methanol for 10 minutes and then washed three times with PBS. Coverslips may be blocked for 1 hour in 2% BSA/PBS and incubated for a further 1 hour in the presence of mouse anti-E-cadherin antibody (Transduction Labs, 1:250 dilution). Primary and secondary antibodies may be diluted in 2% BSA/PBS. Following incubation in the primary antibody, coverslips may be washed three times for 5 minutes each in PBS and incubated for 1 hour with donkey anti-mouse antibody conjugated to fluorescein (diluted 1:200). Following further washes in PBS (3×5 min) coverslips can be mounted and viewed by confocal microscopy.
NRK cells (ATCC #1571-CRL) were plated at 10-20,000 cells per 35 mm tissue culture flasks containing DMEM with 10% FCS and sub-cultured periodically (Laird et al., J. Cell Biol. 131:1193-1203, 1995). Cells were harvested and replated in 35 mm tissue culture flasks containing 1 mm coverslips and incubated until 50-65% confluent (24-36 hours). At this time, coverslips were transferred to a 24-well plate, washed once with fresh DMEM and exposed to cyclic peptide solutions (N—Ac-CHAVC-NH2 (SEQ ID NO:10) and N—Ac-CHGVC-NH2 (SEQ ID NO:11)) at a concentration of 1 mg/mL for 24 hours. Fresh peptide solutions were then added and the cells were left for an additional 24 hours. Cells were fixed with 100% methanol for 10 minutes and then washed three times with PBS. Coverslips were blocked for 1 hour in 2% BSA/PBS and incubated for a further 1 hour in the presence of mouse anti-E-cadherin antibody (Transduction Labs, Lexington, Ky.; 1:250 dilution). Primary and secondary antibodies were diluted in 2% BSA/PBS. Following incubation in the primary antibody, coverslips were washed three times for 5 minutes each in PBS and incubated for 1 hour with donkey anti-mouse antibody conjugated to fluorescein (Jackson Immuno Research, West Grove, Pa.; diluted 1:200). Following a further wash in PBS (3×5 min) coverslips were mounted and viewed by confocal microscopy.

Data set [2] can be described thus: Cytotoxicity, MTT assay, HUVEC. Format: cell-based. The following applies: human, HUVEC (human umbilical vein endothelial cells), read-out: HUVEC Cytotox (IC50). As for the experimental part: (§3) N—Ac-CHAVC-NH2 (SEQ ID NO:10) and the control peptide N—Ac-CHGVC-NH2 (SEQ ID NO:11) were evaluated for possible cytotoxic effects on human microvascular endothelial (HMVEC; Clonetics), human umbilical vein endothelial (HUVEC; ATCC #CRL-1730), IAFp2 (human fibroblast cell line; Institute Armand-Frapier, Montreal, Quebec), WI-38 (human fibroblast cell line; ATCC #CCL-75), MDA-MB231 (human breast cancer cell line; ATCC #HTB-26), and PC-3 (human prostate cancer cell line; ATCC #CRL-1435) cells utilizing the MTT assay (Plumb et al., Cancer Res. 49:4435-4440, 1989). Neither of the peptides was cytotoxic at concentrations up to and including 100 μM. Similarly, neither of the peptides was capable of inhibiting the proliferation of the above cell lines at concentrations up to 100 μM, as judged by ^3H-thymidine incorporation assays.
For orientation: Formazan colour is commonly taken as a measure of viable cells.

Another data set relates to Rat. Put plainly: Acute toxicity study in rat. Type of data set: in vivo. The following applies: intravenously, 100 mg/kg.
Data set [3] can be described thus: Cytotoxicity, MTT assay, IAFp2. Format: cell-based. As to conditions: human, read-out: IAFp2 Cytotox (IC50). As for the experimental part: as §3
For a further data set, the system named is Melanoma ME115 cells. Briefly: Disruption of melanoma cell adhesion, pan-cadherin staining. As to conditions: 500 μg/mL, 48 hours. Type of data set: cell-based, human. How it is done: as §1, with “Melanoma ME115” for “A1N4 human breast epithelial”, “Meenhard Herlyn, Wistar Institute, Philadelphia, Pa.)” for “Martha Stampfer, Lawrence Berkeley Laboratory, Berkeley, Calif.)”, “cultured” for “cultured in F12/DME containing 0.5% FCS and 10 ng/mL EGF”, “hours in 50% keratinocyte growth medium (Clonetics, San Diego, Calif.) and 50% L15.” for “hours.”
as §2, with “of rabbit pan-cadherin” for “of 1 μg/mL mouse anti-E-cadherin”, “antibody (Sigma Chemical Co., St. Louis, Mo.) diluted 1:500.” for “antibody (Zymed, Gaithersburg, Md.).”, “hour in” for “hour with”, “goat anti-rabbit immunoglobulin G” for “goat anti-mouse”

Turning to `CC(=O)N[C@H]1CSSC[C@@H](C(N)=O)NC(=O)[C@H](C(C)C)NC(=O)[C@H](C)NC(=O)[C@H](Cc2c[nH]cn2)NC1=O` [N—Ac—CHAVC—NH2, N-Ac-Cys-His-Ala-Val-Cys-NH2], the “E-cadherin staining and monolayer of A1N4 cells” value in data set [1] was “distribution of E-cadherin is non-contiguous; also recorded: reduced E-cadherin staining with a stitched appearance”. Moreover, in the data set on NRK cells, the “E-cadherin expression of NRK cells (immunofluorescence)” value is listed as “E-cadherin expression is greatly reduced; also recorded: expressed greatly reduced levels of E-cadherin” and the “disruption of NRK cell adhesion” value is “NRK cells retract from one another; also recorded: disrupted NRK cell adhesion”. For the same molecule, in data set [2], the IC50 is more than 100 µM. Besides, the “gross or histopathological findings” value in the data set on Rat is on record as “no gross or histopathological findings related to the treatment”. Also, the IC50 in data set [3] (IAFp2 fibroblast cell line) is more than 100 µM. Further, in the data set on Melanoma ME115 cells, the “cadherin staining of ME115 cells” value was “cadherin is localized in intracellular vesicles; also recorded: absence of cell membrane staining and the appearance of bright intracellular vesicular staining”; the melanoma cell adhesion entry was “disrupts melanoma cell adhesion”.

Take `CC(=O)N[C@H]1CSSC[C@@H](C(N)=O)NC(=O)[C@H](C(C)C)NC(=O)CNC(=O)[C@H](Cc2c[nH]cn2)NC1=O` [N—Ac—CHGVC—NH2, reference compound]: in data set [1], the “E-cadherin staining and monolayer of A1N4 cells” value was “displayed E-cadherin staining concentrated at points of cell-cell contact and formed a tightly adherent monolayer”. In the data set with NRK cells, the “E-cadherin expression of NRK cells (immunofluorescence)” value was “expressed E-cadherin” and the “disruption of NRK cell adhesion” value is reported as “had no affect on cell adhesion”. In addition, in data set [2], the 50% inhibitory concentration (IC50) is more than 100 µM. In addition, the 50% inhibitory concentration (IC50) in data set [3] (IAFp2 cells (human fibroblast cell line)) was more than 100 µM. For the same molecule, the “cadherin staining of ME115 cells” value in the data set with Melanoma ME115 cells is recorded as “displayed cadherin staining all over the cell membrane”.

As usually defined, the IC50 is the concentration that gives 50% inhibition.
